Assay results reported in the NIST ThermoML archive (doi:10.1016/j.fluid.2017.10.034).

Assay: xn = mol fraction of the nth substance listed
Settings: Liquid, Vibrating tube method

[Cl-].[Cs+] [cesium chloride] + O
mass density [kg/m3]
Settings	x1 = 0.0099	x1 = 0.0196	x1 = 0.0292	x1 = 0.0385	x1 = 0.0536	x1 = 0.069
288.15 K	1069.7	1137.3	1203.3	1266.2	1367	1466.9
293.15 K	1068.4	1135.8	1201.6	1264.2	1364.6	1464.1
298.15 K	1067	1134.1	1199.6	1262	1362.1	1461.3
308.15 K	1063.5	1130.1	1195.2	1257.3	1356.7	1455.3
318.15 K	1059.2	1125.5	1190.2	1252	1350.9	1448.6

[Cl-].[Na+] [sodium chloride] + CO
mass density [kg/m3]
Settings	x1 = 0.001	x1 = 0.002	x1 = 0.003	x1 = 0.004	x1 = 0.005	x1 = 0.006	x1 = 0.007
288.15 K	797.4	798.9	800.1	801.4	802.9	804.1	805.7
293.15 K	792.7	794.3	795.5	796.8	798.3	799.5	801.1
298.15 K	788	789.6	790.8	792.1	793.7	794.9	796.4
308.15 K	778.6	780.2	781.4	782.7	784.3	785.5	787.1
318.15 K	769	770.7	771.9	773.3	774.8	776.1	777.7

[Cl-].[Cs+] [cesium chloride] + CO
mass density [kg/m3]
Settings	288.15 K	293.15 K	298.15 K	308.15 K	318.15 K
x1 = 0.0012	800.8	796.1	791.3	781.8	772.3
x1 = 0.0025	805.5	800.8	796	786.5	776.9
x1 = 0.0037	809.9	805.2	800.5	791	781.4
x1 = 0.0049	814.5	809.8	805.1	795.5	785.9

[Cl-].[Na+] [sodium chloride] + O
mass density [kg/m3]
Settings	x1 = 0.0099	x1 = 0.0196	x1 = 0.0291	x1 = 0.0385	x1 = 0.0476	x1 = 0.0566	x1 = 0.0654
288.15 K	1022.2	1044.7	1065.8	1086.7	1107.4	1127.2	1147.1
293.15 K	1021	1043.2	1064.1	1084.8	1105.4	1125	1144.8
298.15 K	–	1041.6	1062.3	1082.8	1103.3	1122.7	1142.4
308.15 K	1016.2	1037.8	1058.2	1078.5	1098.7	1118	1137.4
318.15 K	1012.1	1033.5	1053.6	1073.7	1093.8	1112.9	1132.2
